Results: patent US11649242B2, “Pyrrolopyrrole compositions as pyruvate kinase (PKR) activators” (FORMA Therapeutics, Inc., priority 2017, dated 2023)

What was measured:
Format in all cases: biochemical
PKR(G332S) = PKR(G332S) (Homo sapiens, UniProt P30613, G332S); experiment: Luminescence Assay Protocol (Kinase Glo Plus), PKR(G332S/with FBP); conditions: PKRG332S, with FBP; for activation at 1.54 µM: compound 1.54 μM, read-out: C - AC50 LUM KGP FBP % Fold @ 1.54 μM mean; for AC50: gmean, read-out: A - AC50 LUM KGP FBP AC50 μM gmean; for Emax: highest % fold increase at any concentration, read-out: B - AC50 LUM KGP FBP MAX % FOLD mean
Chain of PKR(G332S) (P30613 whole entry G332S): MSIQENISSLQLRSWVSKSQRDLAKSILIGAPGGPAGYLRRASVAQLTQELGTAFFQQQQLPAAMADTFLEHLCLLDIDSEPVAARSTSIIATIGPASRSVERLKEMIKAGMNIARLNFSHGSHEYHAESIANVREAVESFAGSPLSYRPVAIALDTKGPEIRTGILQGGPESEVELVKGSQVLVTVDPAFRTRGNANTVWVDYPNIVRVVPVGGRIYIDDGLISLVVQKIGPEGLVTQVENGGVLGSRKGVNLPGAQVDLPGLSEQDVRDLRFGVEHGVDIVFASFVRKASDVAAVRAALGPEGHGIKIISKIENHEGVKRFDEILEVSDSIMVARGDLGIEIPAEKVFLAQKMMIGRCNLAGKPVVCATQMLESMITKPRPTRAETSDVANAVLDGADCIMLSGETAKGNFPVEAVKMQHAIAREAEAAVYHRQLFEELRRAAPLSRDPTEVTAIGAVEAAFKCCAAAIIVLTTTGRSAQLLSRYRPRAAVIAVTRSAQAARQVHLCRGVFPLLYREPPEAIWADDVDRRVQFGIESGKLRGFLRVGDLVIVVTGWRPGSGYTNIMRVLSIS
Outline: (§1)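 Enzyme (wt 0.8 nM, R510Q 0.8 nM, G332S 10 nM) was preincubated 30 min at RT with compound and 100 μM PEP in Tris/KCl/MgCl2 buffer, then started with 100 μM ADP, plus 30 μM FBP for G332S. Luminescence was read after 45 min at RT. AC50 came from a four-parameter fit of % fold over DMSO across 42.5 μM–2.2 nM.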

PKR(R510Q) = PKR(R510Q) (Homo sapiens, UniProt P30613, R510Q); experiment: Luminescence Assay Protocol (Kinase Glo Plus), PKR(R510Q/without FBP); conditions: PKRR510Q, without FBP; for activation at 1.54 µM: compound 1.54 μM, read-out: F - AC50 LUM KGP woFBP % Fold @ 1.54 μM mean; for AC50: gmean, read-out: D - AC50 LUM KGP woFBP AC50 μM gmean; for Emax: highest % fold increase at any concentration, read-out: E - AC50 LUM KGP woFBP MAX % FOLD mean
Chain of PKR(R510Q) (P30613 whole entry R510Q): as the sequence (P30613 whole entry G332S) above, with S332G, R510Q counted along it
Outline: as §1

PKR(wt) = PKR(wt) (Homo sapiens, UniProt P30613); experiment: Luminescence Assay Protocol (Kinase Glo Plus), PKR(Wt/without FBP); conditions: without FBP; for activation at 1.54 µM: compound 1.54 μM, read-out: I - AC50 LUM KGP woFBP % Fold @ 1.54 μM mean; for AC50: gmean, read-out: G - AC50 LUM KGP woFBP AC50 μM gmean; for Emax: highest % fold increase at any concentration, read-out: H - AC50 LUM KGP woFBP MAX % FOLD mean
Chain of PKR(wt) (P30613 whole entry): as the sequence (P30613 whole entry G332S) above, with S332G counted along it
Outline: as §1

| SMILES | activation at 1.54 µM (PKR(G332S)) | AC50 (PKR(G332S)) | Emax (PKR(G332S)) | activation at 1.54 µM (PKR(R510Q)) | AC50 (PKR(R510Q)) | Emax (PKR(R510Q)) | activation at 1.54 µM (PKR(wt)) | AC50 (PKR(wt)) | Emax (PKR(wt)) |
| --- | --- | --- | --- | --- | --- | --- | --- | --- | --- |
| O=C([C@@H]1CCOC1)N1CC2=C(C1)CN(S(=O)(=O)c1ccc3ncsc3c1)C2 [Example 20, (R)-(5-(benzo[d]thiazol-6-ylsulfonyl)-3,4,5,6-tetrahydropyrrolo[3,4-c]pyrrol-2(1H)-yl)(tetrahydrofuran-3-yl)methanone] | 75 to 250% | 0.1 to 1 µM | 75 to 250% | 75 to 250% | 1 to 40 µM | 250 to 500% | 75 to 250% | 0.1 to 1 µM | 250 to 500% |
| CC(C)(O)[C@@H](C(=O)N1CC2=C(C1)CN(S(=O)(=O)c1ccc(OC(F)F)cc1)C2)c1ccccc1 [Example 28, (S)-1-(5-((4-(difluoromethoxy)phenyl)sulfonyl)-3,4,5,6-tetrahydropyrrolo[3,4-c]pyrrol-2(1H)-yl)-3-hydroxy-3-methyl-2-phenylbutan-1-one] | 75 to 250% | ≤ 0.1 µM | 75 to 250% | 75 to 250% | 1 to 40 µM | 250 to 500% | 75 to 250% | 0.1 to 1 µM | 250 to 500% |
| O=C([C@H](CO)c1ccccc1)N1CC2=C(C1)CN(S(=O)(=O)c1ccc3ncsc3c1)C2 [Example 29, (S)-1-(5-(benzo[d]thiazol-6-ylsulfonyl)-3,4,5,6-tetrahydropyrrolo[3,4-c]pyrrol-2(1H)-yl)-3-hydroxy-2-phenylpropan-1-one] | 75 to 250% | ≤ 0.1 µM | 75 to 250% | 250 to 500% | ≤ 0.1 µM | 250 to 500% | 250 to 500% | ≤ 0.1 µM | 250 to 500% |
| O=C([C@@H](CO)c1ccccc1)N1CC2=C(C1)CN(S(=O)(=O)c1ccc3ncsc3c1)C2 [Example 30, (R)-1-(5-(benzo[d]thiazol-6-ylsulfonyl)-3,4,5,6-tetrahydropyrrolo[3,4-c]pyrrol-2(1H)-yl)-3-hydroxy-2-phenylpropan-1-one] | 75 to 250% | 0.1 to 1 µM | 75 to 250% | 250 to 500% | 0.1 to 1 µM | 250 to 500% | 250 to 500% | 0.1 to 1 µM | 250 to 500% |
| O=C([C@H](CO)c1ccccc1)N1CC2=C(C1)CN(S(=O)(=O)c1ccc(OC(F)F)cc1)C2 [Example 31, (S)-1-(5-((4-(difluoromethoxy)phenyl)sulfonyl)-3,4,5,6-tetrahydropyrrolo[3,4-c]pyrrol-2(1H)-yl)-3-hydroxy-2-phenylpropan-1-one] | 75 to 250% | ≤ 0.1 µM | 75 to 250% | 250 to 500% | ≤ 0.1 µM | 250 to 500% | 250 to 500% | ≤ 0.1 µM | 250 to 500% |
| CC1(C)CNc2cc(S(=O)(=O)N3CC4=C(CN(C(=O)[C@H](CO)c5ccccc5)C4)C3)ccc2O1 [Example 32, (S)-1-(5-((2,2-dimethyl-3,4-dihydro-2H-benzo[b][1,4]oxazin-6-yl)sulfonyl)-3,4,5,6-tetrahydropyrrolo[3,4-c]pyrrol-2(1H)-yl)-3-hydroxy-2-phenylpropan-1-one] | 75 to 250% | > 40 µM | 75 to 250% | 75 to 250% | ≤ 0.1 µM | 75 to 250% | 75 to 250% | ≤ 0.1 µM | 75 to 250% |
| O=C([C@H](CO)c1ccccc1)N1CC2=C(C1)CN(S(=O)(=O)c1ccc3c(c1)NCCO3)C2 [Example 35, (S)-1-(5-((3,4-dihydro-2H-benzo[b][1,4]oxazin-6-yl)sulfonyl)-3,4,5,6-tetrahydropyrrolo[3,4-c]pyrrol-2(1H)-yl)-3-hydroxy-2-phenylpropan-1-one] | 75 to 250% | ≤ 0.1 µM | 75 to 250% | 250 to 500% | ≤ 0.1 µM | 250 to 500% | 75 to 250% | ≤ 0.1 µM | 75 to 250% |
| COCC1(C(=O)N2CC3=C(C2)CN(S(=O)(=O)c2ccc4c(c2)NCCO4)C3)CC1 [Example 36, (5-((3,4-dihydro-2H-benzo[b][1,4]oxazin-6-yl)sulfonyl)-3,4,5,6-tetrahydropyrrolo[3,4-c]pyrrol-2(1H)-yl)(1-(methoxymethyl)cyclopropyl)methanone] | 75 to 250% | > 40 µM | 75 to 250% | 75 to 250% | 1 to 40 µM | 75 to 250% | 75 to 250% | 0.1 to 1 µM | 75 to 250% |
| CC(C)(CO)C(=O)N1CC2=C(C1)CN(S(=O)(=O)c1ccc3c(c1)NCCO3)C2 [Example 37, 1-(5-((3,4-dihydro-2H-benzo[b][1,4]oxazin-6-yl)sulfonyl)-3,4,5,6-tetrahydropyrrolo[3,4-c]pyrrol-2(1H)-yl)-3-hydroxy-2,2-dimethylpropan-1-one] | 75 to 250% | > 40 µM | 75 to 250% | 250 to 500% | ≤ 0.1 µM | 250 to 500% | 75 to 250% | 0.1 to 1 µM | 75 to 250% |
| O=C(C1CCOC1)N1CC2=C(C1)CN(S(=O)(=O)c1ccc3c(c1)NCCO3)C2 (stereo not drawn) [Example 39, (5-((3,4-dihydro-2H-benzo[b][1,4]oxazin-6-yl)sulfonyl)-3,4,5,6-tetrahydropyrrolo[3,4-c]pyrrol-2(1H)-yl)(tetrahydrofuran-3-yl)methanone] | 75 to 250% | ≤ 0.1 µM | 75 to 250% | 250 to 500% | 0.1 to 1 µM | 250 to 500% | 250 to 500% | 0.1 to 1 µM | 250 to 500% |
| O=C(C1COc2ccccc21)N1CC2=C(C1)CN(S(=O)(=O)c1ccc3ncsc3c1)C2 (stereo not drawn) [Example 43, (5-(benzo[d]thiazol-6-ylsulfonyl)-3,4,5,6-tetrahydropyrrolo[3,4-c]pyrrol-2(1H)-yl)(2,3-dihydrobenzofuran-3-yl)methanone] | 75 to 250% | 0.1 to 1 µM | 75 to 250% | 250 to 500% | 1 to 40 µM | 250 to 500% | 250 to 500% | 0.1 to 1 µM | 250 to 500% |
| CN1CCOc2ccc(S(=O)(=O)N3CC4=C(CN(C(=O)C(CO)c5ccccc5)C4)C3)cc21 (stereo not drawn) [Example 46, 3-hydroxy-1-(5-((4-methyl-3,4-dihydro-2H-benzo[b][1,4]oxazin-6-yl)sulfonyl)-3,4,5,6-tetrahydropyrrolo[3,4-c]pyrrol-2(1H)-yl)-2-phenylpropan-1-one] | 75 to 250% | > 40 µM | 75 to 250% | 75 to 250% | > 40 µM | 75 to 250% | 75 to 250% | ≤ 0.1 µM | 75 to 250% |
| CN1CCOc2ccc(S(=O)(=O)N3CC4=C(CN(C(=O)C5CCOC5)C4)C3)cc21 (stereo not drawn) [Example 47, (5-((4-methyl-3,4-dihydro-2H-benzo[b][1,4]oxazin-6-yl)sulfonyl)-3,4,5,6-tetrahydropyrrolo[3,4-c]pyrrol-2(1H)-yl)(tetrahydrofuran-3-yl)methanone] | 75 to 250% | > 40 µM | 75 to 250% | 75 to 250% | 1 to 40 µM | 250 to 500% | 75 to 250% | 0.1 to 1 µM | 75 to 250% |
| O=C(C(CO)c1ccccc1)N1CC2=C(C1)CN(S(=O)(=O)c1ccc3ncsc3c1)C2 (stereo not drawn) [Example 48, 1-(5-(benzo[d]thiazol-6-ylsulfonyl)-3,4,5,6-tetrahydropyrrolo[3,4-c]pyrrol-2(1H)-yl)-3-hydroxy-2-phenylpropan-1-one] | 75 to 250% | ≤ 0.1 µM | 75 to 250% | 250 to 500% | ≤ 0.1 µM | 250 to 500% | 250 to 500% | ≤ 0.1 µM | 250 to 500% |
| O=C(C(CO)c1ccccc1)N1CC2=C(C1)CN(S(=O)(=O)c1ccc(OC(F)F)cc1)C2 (stereo not drawn) [Example 49, 1-(5-((4-(difluoromethoxy)phenyl)sulfonyl)-3,4,5,6-tetrahydropyrrolo[3,4-c]pyrrol-2(1H)-yl)-3-hydroxy-2-phenylpropan-1-one] | 75 to 250% | ≤ 0.1 µM | 75 to 250% | 250 to 500% | ≤ 0.1 µM | 250 to 500% | 250 to 500% | ≤ 0.1 µM | 250 to 500% |
| O=C([C@H](CO)c1ccccc1)N1CC2=C(C1)CN(S(=O)(=O)c1cccnc1)C2 [Example 50, (2S)-3-hydroxy-2-phenyl-1-[5-(pyridine-3-sulfonyl)-1H,2H,3H,4H,5H,6H-pyrrolo[3,4-c]pyrrol-2-yl]propan-1-one] | 75 to 250% | 0.1 to 1 µM | 75 to 250% | 250 to 500% | 0.1 to 1 µM | 250 to 500% | 75 to 250% | 0.1 to 1 µM | 250 to 500% |
